Drawing on PubChem BioAssay (NCI), this text covers TGI for nine molecules.

Structures are written as SMILES.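 Grown in 96-well plates, cells were treated for 48 hours with each compound at five concentrations. Insufficient inhibition: endpoint recorded as highest concentration tested. TGI is the concentration that stops growth completely.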

Test systems include KM12 colon; IGROV1 ovarian; UACC-62 melanoma; MDA-MB-231 breast; HCT-116 colon; HOP-62 NSCLC; SK-MEL-5 melanoma; HL-60(TB) leukemia; MDA-N; SNB-75 CNS; HT29 colon; HOP-92 NSCLC; TK-10 renal; NCI-H226 lung; ACHN renal.
Assay in all cases: NCI anticancer screen, dose series, 48 h

As for `CCN(CC)c1nc(=O)c(C(=O)C(C)(C)C)c(C(C)(C)C)o1`, the TGI with KM12 colon, in the test on IGROV1 ovarian, in the test with UACC-62 melanoma, with MDA-MB-231 breast, with HCT-116 colon and in the test with HOP-62 NSCLC was > 100 µM in each case. Further, the TGI with SK-MEL-5 melanoma, in the test on HL-60(TB) leukemia, in the test with MDA-N, in the test with SNB-75 CNS, with HT29 colon and in the test with HOP-92 NSCLC was > 100 µM in each case. The TGI with TK-10 renal, in the test on NCI-H226 lung and in the test with ACHN renal was > 100 µM each time.

Turning to `CC(=O)[C@]1(C)[C@H](C)O[C@](C)(CO)[C@H]1O[Si](C)(C)c1ccccc1`, the TGI was > 100 µM in the test on KM12 colon; 41.4 µM in the test with IGROV1 ovarian; > 100 µM in the test with UACC-62 melanoma; > 100 µM with MDA-MB-231 breast; > 100 µM in the test on HCT-116 colon; > 100 µM with HOP-62 NSCLC. For the same molecule, the TGI with SK-MEL-5 melanoma was > 100 µM; in the test with HL-60(TB) leukemia, 72.4 µM; in the test with MDA-N it was > 100 µM; in the test on SNB-75 CNS, > 100 µM; in the test with HT29 colon, > 100 µM; in the test on HOP-92 NSCLC, > 100 µM. Besides, the TGI in the test with TK-10 renal, in the test on NCI-H226 lung and in the test on ACHN renal was > 100 µM each time.

Regarding `CCOC(=O)NC(C(C(=O)OCC)C(=O)OCC)(C(F)(F)F)C(F)(F)F`, the TGI in the test with KM12 colon, in the test with IGROV1 ovarian, in the test with UACC-62 melanoma, with MDA-MB-231 breast, with HCT-116 colon and with HOP-62 NSCLC was > 100 µM each time. Besides, the TGI in the test on SK-MEL-5 melanoma, in the test on HL-60(TB) leukemia, in the test with MDA-N, in the test with SNB-75 CNS, in the test with HT29 colon and with HOP-92 NSCLC was > 100 µM each time. The TGI in the test on TK-10 renal, in the test on NCI-H226 lung and with ACHN renal was > 100 µM each time.

For `CCN(CC)CCNc1ccc2ncn3c4c(OC)ccc(=O)c4c(O)c1c23`, the TGI in the test with KM12 colon was > 100 µM; with IGROV1 ovarian, > 43.8 µM; with UACC-62 melanoma, > 100 µM; with MDA-MB-231 breast it was > 100 µM; in the test with HCT-116 colon, > 44.3 µM; in the test on HOP-62 NSCLC it was > 100 µM. The TGI in the test on SK-MEL-5 melanoma was > 39.6 µM; in the test with HL-60(TB) leukemia it was > 100 µM; in the test with MDA-N, > 100 µM; with SNB-75 CNS, > 100 µM; with HT29 colon, > 57.8 µM; in the test with HOP-92 NSCLC, > 62.1 µM. In addition, the TGI in the test with TK-10 renal, in the test on NCI-H226 lung and with ACHN renal was > 100 µM throughout.

Take `N#Cc1nc(NC(=O)c2ccccc2)sc1N`: the TGI with KM12 colon, in the test on IGROV1 ovarian, with UACC-62 melanoma, with MDA-MB-231 breast, in the test with HCT-116 colon and in the test on HOP-62 NSCLC was > 10 µM in each case. The TGI with SK-MEL-5 melanoma, with HL-60(TB) leukemia, in the test on MDA-N, in the test with SNB-75 CNS, with HT29 colon and with HOP-92 NSCLC was > 10 µM in each case. The TGI in the test with TK-10 renal, in the test with NCI-H226 lung and in the test with ACHN renal was > 10 µM in each case.

As to `CCCCCCCCCCCCCCC[C@@H](O)C[N+](C)(C)CCO`, the TGI with KM12 colon was 1.4 µM; in the test on IGROV1 ovarian, 2.11 µM; in the test with UACC-62 melanoma, 36.4 µM; with MDA-MB-231 breast, 7.85 µM; in the test with HCT-116 colon it was > 62.1 µM; in the test on HOP-62 NSCLC, > 100 µM. In addition, the TGI in the test with SK-MEL-5 melanoma is 7.07 µM; in the test with HL-60(TB) leukemia it was 0.36 µM; with MDA-N it was 29.5 µM; in the test on SNB-75 CNS, 7.54 µM; in the test with HT29 colon, 4.62 µM; in the test with HOP-92 NSCLC, > 39.7 µM. In addition, the TGI stood at 2.86 µM in the test with TK-10 renal, 14 µM with NCI-H226 lung and 24.1 µM with ACHN renal.

Take `C=CCN(c1cc(OCc2ccccc2)c2c(c1)c(C)cn2S(=O)(=O)c1ccccc1)S(C)(=O)=O`: the TGI in the test on KM12 colon, in the test with IGROV1 ovarian, in the test on UACC-62 melanoma, with MDA-MB-231 breast, in the test on HCT-116 colon and in the test with HOP-62 NSCLC was > 100 µM each time. Also, the TGI with SK-MEL-5 melanoma, in the test on HL-60(TB) leukemia, in the test on MDA-N, in the test on SNB-75 CNS, with HT29 colon and with HOP-92 NSCLC was > 100 µM throughout. For the same molecule, the TGI with TK-10 renal, in the test on NCI-H226 lung and in the test with ACHN renal was > 100 µM in each case.

Turning to `Nc1nc(Sc2ccc([N+](=O)[O-])cn2)c2[nH]cnc2n1`, the TGI is > 38.1 µM in the test with KM12 colon; 77.9 µM in the test on IGROV1 ovarian; 11.6 µM with UACC-62 melanoma; 35.1 µM with MDA-MB-231 breast; > 39.7 µM in the test on HCT-116 colon; > 100 µM in the test with HOP-62 NSCLC. Further, the TGI in the test on SK-MEL-5 melanoma is 31.2 µM; with HL-60(TB) leukemia, > 59.4 µM; in the test with MDA-N, 34.6 µM; in the test on SNB-75 CNS, 63.9 µM; in the test on HT29 colon it was > 74.3 µM; in the test on HOP-92 NSCLC, 38.7 µM. The TGI in the test on TK-10 renal is > 100 µM; with NCI-H226 lung, 57.3 µM; with ACHN renal it was > 73.5 µM.

For the molecule `Cc1cccc(Nc2nc(NNC(=O)Cc3ccccc3)nc(NNC(=O)c3ccncc3)n2)c1`, the TGI with KM12 colon, with IGROV1 ovarian, with UACC-62 melanoma, in the test with MDA-MB-231 breast, in the test on HCT-116 colon and in the test with HOP-62 NSCLC was > 10 µM each time. Further, the TGI in the test on SK-MEL-5 melanoma, in the test on HL-60(TB) leukemia, with MDA-N, with SNB-75 CNS, in the test on HT29 colon and in the test with HOP-92 NSCLC was > 10 µM throughout. Moreover, the TGI in the test with TK-10 renal, in the test with NCI-H226 lung and with ACHN renal was > 10 µM throughout.
